From patent US7531565B2, “Imidazolidin-2-one derivatives as selective androgen receptor modulators (SARMS)” (Janssen Pharmaceutica, N.V., priority 2004, dated 2009)

How the values were obtained:
androgen receptor [1] = target: T1, androgen receptor (Rattus norvegicus, UniProt P15207); experiment: Androgen receptor binding using rat ventral prostate cytosol; parameters: Male Sprague Dawley or Wistar rats (Charles River, 200-300 g) were used for each preparation; from tissue; host or cells: ventral prostate cytosol of castrated male Sprague Dawley or Wistar rats
T1 sequence (P15207 1-902): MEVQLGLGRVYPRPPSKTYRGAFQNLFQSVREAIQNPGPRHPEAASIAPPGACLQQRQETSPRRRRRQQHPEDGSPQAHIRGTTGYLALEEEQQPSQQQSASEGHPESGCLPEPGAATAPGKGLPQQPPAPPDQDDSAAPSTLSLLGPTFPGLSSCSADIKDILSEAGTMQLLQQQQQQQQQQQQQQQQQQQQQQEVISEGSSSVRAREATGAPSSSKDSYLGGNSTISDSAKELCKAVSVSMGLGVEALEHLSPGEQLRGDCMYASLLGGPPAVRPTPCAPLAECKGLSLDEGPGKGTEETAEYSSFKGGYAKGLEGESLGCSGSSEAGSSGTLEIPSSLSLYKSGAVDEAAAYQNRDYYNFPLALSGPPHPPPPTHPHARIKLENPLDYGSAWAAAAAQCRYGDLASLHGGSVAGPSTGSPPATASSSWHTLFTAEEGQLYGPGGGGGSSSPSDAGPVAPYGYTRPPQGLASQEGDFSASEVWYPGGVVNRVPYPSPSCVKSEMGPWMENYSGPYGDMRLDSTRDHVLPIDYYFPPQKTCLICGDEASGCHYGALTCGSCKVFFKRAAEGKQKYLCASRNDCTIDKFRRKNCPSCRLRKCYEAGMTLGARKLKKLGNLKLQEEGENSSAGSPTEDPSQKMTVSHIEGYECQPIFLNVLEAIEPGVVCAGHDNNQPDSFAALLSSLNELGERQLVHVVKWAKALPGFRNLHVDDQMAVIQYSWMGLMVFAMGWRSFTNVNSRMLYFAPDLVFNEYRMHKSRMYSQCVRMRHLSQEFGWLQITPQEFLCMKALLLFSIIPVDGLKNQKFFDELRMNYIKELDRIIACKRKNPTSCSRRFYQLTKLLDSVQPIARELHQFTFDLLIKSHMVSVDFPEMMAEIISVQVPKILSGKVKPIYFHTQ

[2] = system: castrated male Sprague Dawley rats; experiment: Ventral prostate and seminal vesicle weight in vivo assay; parameters: species or system rat; key: A test compound was said to be “active” if the non weight adjusted prostate weight was ≦60 mg or ≧84 mg; they are listed herein as “inactive” as they did not meet the specified criteria defined above; settings: immature castrated rats, once daily for five days, usually orally 40 mg/kg, with testosterone propionate 2 mg/kg s.c.
Description: Immature (approximately 50 g) castrated male Sprague Dawley rats (Charles River) were treated once daily for five days with test compound (usually given orally at 40 mg/kg in a volume of 0.3 mL, in 30% cyclodextrin or 0.5% methylcellulose vehicle) and with testosterone propionate (given subcutaneously by injection at the nape of the neck at 2 mg/kg, in a volume of 0.1 mL in sesame oil). On the sixth day, the rats were euthanized by asphyxiation in carbon dioxide. Ventral prosatates and seminal vesicles were removed and their wet weights determined. Test compound activity was determined as the percent inhibition of testosterone-enhanced tissue weights, with a vehicle-treated control group set to zero percent and a testosterone alone-treated control group set to 100%.
A test compound was said to be “active” if the non weight adjusted prostate weight was ≦60 mg or ≧84 mg.

androgen receptor [3] = target: T1, androgen receptor; experiment: L929 androgen receptor functional assay, adenovirus transduction; format: cell-based; parameters: expressed in transfected cells; settings: 3 μM, L929 cells; for % Activition @ 3 μM: agonist testing (no R1881), luciferase
Description: L929 cells were plated in 96-well plates at 20,000 cells per well, in DMEM/F12 (GIBCO) containing 10% (v/v) charcoal-treated fetal bovine serum (Hyclone) and lacking phenol red. The plates were then incubated overnight at 37° C. in 5% (v/v) humidified CO2.
Test compound dilutions were prepared in 100% (v/v) DMSO, if necessary. Each dilution was made to 1250× the final desired assay concentration. First, 2 mL of DMEM/F12 lacking phenol red was pipetted into the wells of a 2-mL 96-well assay block. Next, 4 μL of the 1250× test compound dilutions were pipetted into each well of the assay block. The mixtures within the well were then carefully mixed by pipette.
In a 15 mL or 50 mL sterile centrifuge tube, a 2.5 nM (2.5×) dilution of R1881 (methyl-trienolone) in DMEM/F12 lacking phenol red was prepared. In a second 15 mL or 50 mL centrifuge tube a solution containing an equal volume of DMEM to the first and an equal volume of 100% (v/v) DMSO to the volume of R1881 used in the first tube was prepared.
In a 15 mL or 50 mL sterile centrifuge tube, a dilution in DMEM/F12 of the adenovirus AdEasy+rAR at an moi of 1:500 per well was prepared. The medium was removed from the 96-well plates by inversion and dried, inverted, very briefly. As soon as possible after medium removal, 40 μL of the diluted unlabeled test compound was added to each well, in duplicate. To each well designated for antagonist testing was added 40 μL of the 2.5 nM R1881 dilution to the wells for antagonist testing. To each well designated for agonist testing was added 40 μL of the DMSO dilution. Then 20 μL of the diluted adenovirus were added to all wells. The plates were incubated for 48 hours at 37° C. in 5% (v/v) humidified CO2.
To each well was added 100 μL of Steady-Glo luciferase assay substrate (Promega) and the plates were placed on a rotary shaker for 1 min. The plates were then incubated at room temperature in the dark for one hour. The contents of each well were then transferred to a white microtiter plate (Packard) and read on a Luminoskan Ascent (Thermo Lab Systems).
L929 AR percent activity was determined by testing dilutions of the test compound using a concentration of 3000 nM unless otherwise noted. L929 percent inhibition was determined by testing dilutions of the test compound using a concentration of 3000 nM. EC50s and IC50s were determined by testing serial dilutions of the test compound (usually duplicate ten half-log dilutions starting at 10 μM). Luciferase activity per well were measured and EC50s and IC50s determined by linear regression.
Representative compounds of the present invention were tested for functional activity at the androgen receptor according to the procedure described above with results as listed in Table 4.

androgen receptor [4] = target: T1, androgen receptor; experiment: COS-7 whole-cell androgen receptor binding assay, adenovirus transduction; parameters: expressed in transfected cells; settings: 3 μM (3000 nM); COS-7 cells, [3H]R1881, AdEasy+rAR
Description: COS-7 cells were plated in 96-well plates at 20,000 cells per well, in a solution of DMEM/F12 (GIBCO) containing 10% (v/v) charcoal-treated fetal bovine serum (Hyclone) and lacking phenol red. The cells were then incubated overnight at 37° C. in 5% (v/v) humidified CO2.
Test compound solutions were prepared by diluting the test compound in 100% (v/v) DMSO, if necessary. Each dilution yielded a solution which was 625× the final desired test concentration.
Next, 1 mL of DMEM/F12 lacking phenol red was pipetted into each of the wells of a 2-mL 96-well assay block. Then 4 μL of the 625× test compound dilutions were pipetted into each well of the assay block. The wells were carefully mixed by pipette.
In a 15 mL or 50 mL sterile centrifuge tube, a 2.5 nM dilution of tritiated methyl-trienolone in DMEM/F12 lacking phenol red ([^3H]R1881; Perkin-Elmer) was prepared.
In a 15 mL or 50 mL sterile centrifuge tube, a dilution in DMEM/F12 of the adenovirus AdEasy+rAR at a moi of 1:50 per well was prepared.
The medium was removed from the 96-well plates by inversion and the plates dried very briefly, inverted, on a sterile towel. As soon as possible after medium removal, 40 μL of the diluted test compound was added to each well, in duplicate. To each well was then added 40 μL of the 2.5 nM [^3H]R1881 and 20 μL of the diluted adenovirus. The plates were then incubated for 48 hours at 37° C. in 5% (v/v) humidified CO2.
The medium was removed from the above incubated plates by inversion and dried. Each well was then washed with 0.35 mL of 1×PBS. The PBS was then removed from the plates by inversion and the plates dried.
To each well was then added 50 μL of 0.5% (v/v) Triton X-100 (Sigma) in 1×PBS and the plates placed on a rotary shaker for 5 min. The contents of each well were then transferred to an OptiPlate-96 (Packard) scintillation plate. To each well was then added 0.2 mL of Microscint-20 (Packard) and the wells counted on a TopCount (Packard).
Percent inhibition was determined by testing dilutions of the test compound (usually duplicates of 10 μM) in the binding assay. Counts per well were measured and percents of inhibition determined. Androgen receptor binding IC50s were determined by testing serial dilutions of the test compound (usually duplicate ten half-log dilutions starting at 10 μM) in the binding assay. Counts per well were measured and IC50s determined by linear regression.
Representative compounds of the present invention were tested for binding to the androgen receptor according to the procedure described above with results as listed in Table C. Unless otherwise noted, COS binding % inhibition was determined using a concentration of 3000 nM. For compounds tested more than once, each result is listed separately in Table 3 below.

[5] = antagonist testing with R1881, luciferase

| Compound | % Inhibition @ 3 μM (androgen receptor [1]) | active / inactive by non weight adjusted prostate weight [2] | % Activition @ 3 μM (androgen receptor [3]) | % Inhibition @ 3 μM (androgen receptor [3]; [5]) | % Inhibition @ 3 μM (androgen receptor [4]) | inhibition at 3 µM (androgen receptor [1]) | inhibition at 3 µM (androgen receptor [3]; antagonist testing with R1881, luciferase, read-out: % Inhibition @ 3 μM) |
| --- | --- | --- | --- | --- | --- | --- | --- |
| CC1(C(=O)O)CN(c2ccc(C#N)c(C(F)(F)F)c2)C(=O)N1 (racemic) [Compound 5e] | −67% | active | 0% | 30% |  |  |  |
| CC1(C(=O)Nc2ccc(Cl)c(C(F)(F)F)c2)CN(c2ccc(F)cc2)C(=O)N1 (racemic) [Compound 6f] | 66% |  | 3% | 85% | 35% |  |  |
| CC1(C(=O)Nc2ccc(C#N)c(C(F)(F)F)c2)CN(Cc2ccc(F)cc2)C(=O)N1 (racemic) [Compound 6i] | 4% |  | 0% | 76% | 28% |  |  |
| COC(=O)C1(C)CN(c2ccc(F)cc2)C(=O)N1 (stereo not shown) [Compound 4a, 1-(4-Fluoro-phenyl)-4-methyl-2-oxo-imidazolidine-4-carboxylic acid methyl ester] |  | inactive | 0% |  |  | -57% | -20% |
